Reference: BigSolDB 2.1

Cc1ccc(Nc2nccc(N(C)c3ccc4c(C)n(C)nc4c3)n2)cc1S(N)(=O)=O gave a solubility (mole fraction) (in ethanol, 288.15 K) of 7.97e-06, a solubility (mole fraction) (in ethanol, 293.15 K) of 1.01e-05 and a solubility (mole fraction) (in ethanol, 298.15 K) of 1.27e-05. The solubility (mole fraction) (in ethanol, 303.15 K) was 1.61e-05, the solubility (mole fraction) (in ethanol, 308.15 K) was 1.96e-05 and the solubility (mole fraction) (in ethanol, 313.15 K) was 2.36e-05. The solubility (mole fraction) (in ethanol, 318.15 K) was 2.85e-05, the solubility (mole fraction) (in ethanol, 323.15 K) was 3.41e-05 and the solubility (mole fraction) (in ethanol, 328.15 K) was 4.04e-05. The solubility (mole fraction) (in ethyl acetate, 288.15 K) was 6.17e-06, the solubility (mole fraction) (in ethyl acetate, 293.15 K) was 8.06e-06 and the solubility (mole fraction) (in ethyl acetate, 298.15 K) was 1.04e-05. For the same compound, the solubility (mole fraction) (in ethyl acetate, 303.15 K) was 1.31e-05, the solubility (mole fraction) (in ethyl acetate, 308.15 K) was 1.63e-05 and the solubility (mole fraction) (in ethyl acetate, 313.15 K) was 2e-05. For the same compound, the solubility (mole fraction) (in ethyl acetate, 318.15 K) was 2.48e-05, the solubility (mole fraction) (in ethyl acetate, 323.15 K) was 3.06e-05 and the solubility (mole fraction) (in ethyl acetate, 328.15 K) was 3.7e-05. For the same compound, the solubility (mole fraction) (in isopropanol, 288.15 K) was 9.43e-06, the solubility (mole fraction) (in isopropanol, 293.15 K) was 1.19e-05 and the solubility (mole fraction) (in isopropanol, 298.15 K) was 1.49e-05. It also gave a solubility (mole fraction) (in isopropanol, 303.15 K) of 1.86e-05, a solubility (mole fraction) (in isopropanol, 308.15 K) of 2.25e-05 and a solubility (mole fraction) (in isopropanol, 313.15 K) of 2.71e-05. The solubility (mole fraction) (in isopropanol, 318.15 K) was 3.25e-05, the solubility (mole fraction) (in isopropanol, 323.15 K) was 3.9e-05 and the solubility (mole fraction) (in isopropanol, 328.15 K) was 4.69e-05.
